Data from ChEMBL document CHEMBL5042549, “Discovery of Inhibitors of the Lipopolysaccharide Transporter MsbA: From a Screening Hit to Potent Wild-Type Gram-Negative Activity” (J Med Chem, 2022).
Converted amounts (≈) assume the structure as drawn.

System: not listed separately
Assay: Lipophilicity, logD of compound by shake flask method
Assay type: physicochemical
Details: octanol/water

Row | SMILES | logD
1 | C[C@H](Oc1ccnc(C2CC2)c1)c1c(Cl)ccc(F)c1Cl | 4.3
2 | C[C@H](Oc1cccc(C2CC2)c1)c1c(Cl)ccc(F)c1Cl | 5
3 | C[C@H](Oc1ccc(/C=C/C(=O)O)c(C2CC2)c1)c1c(Cl)ccc(F)c1Cl | 3.6
4 | C[C@H](Oc1ccnc(C2CC2)n1)c1c(Cl)ccc(F)c1Cl | 4.2
5 | C[C@H](Oc1cccc(C2CC2)n1)c1c(Cl)ccc(F)c1Cl | 4.9
6 | C[C@H](Oc1ccc2ncc(/C=C/C(=O)O)c(C3CC3)c2c1)c1c(Cl)cccc1Cl | 3.7
7 | C[C@H](Oc1ccc2ncc(/C=C/c3nn[nH]n3)c(C3CC3)c2c1)c1c(Cl)ccc(F)c1Cl | 3.7
8 | C[C@H](Oc1ccc2ncc(/C=C/C(=O)O)c(C#N)c2c1)c1c(Cl)ccc(F)c1Cl | 2.3
9 | C[C@H](Oc1nccc(N(c2nc(C(=O)O)cs2)C2CC2)n1)c1c(Cl)ccc(F)c1Cl | 2.6
10 | C[C@H](Oc1ccc2ncc(/C=C/C(=O)O)c(C3CC3)c2c1)c1c(Cl)ccnc1Cl | 2.3
11 | Cc1c(/C=C/C(=O)O)cnc2ccc(O[C@@H](C)c3c(Cl)ccc(F)c3Cl)cc12 | 3
12 | C[C@H](Oc1ccc(NC(=O)CC(N)=O)c(C2CC2)c1)c1c(Cl)ccc(F)c1Cl | 3.9
13 | C[C@H](Oc1ccc2ncc(/C=C/C(=O)N3CC[C@@H](N)[C@H](C(=O)O)C3)c(C3CC3)c2c1)c1c(Cl)ccc(F)c1Cl (mixture of isomers) | 3.1
14 | C[C@H](Oc1ccc2ncc(/C=C/C(=O)NC(CC(=O)O)CC(=O)O)c(C3CC3)c2c1)c1c(Cl)ccc(F)c1Cl | 0.4
15 | C[C@H](Oc1ccc2ncc(/C=C/C(=O)NS(C)(=O)=O)c(C3CC3)c2c1)c1c(Cl)cccc1Cl | 2.9
16 | C[C@H](Oc1ccc2ncc(/C=C/S(=O)(=O)O)c(C3CC3)c2c1)c1c(Cl)ccc(F)c1Cl | 2.5
17 | C[C@H](Oc1ccc2ncc(S(=O)(=O)CC(=O)O)c(C3CC3)c2c1)c1c(Cl)ccc(F)c1Cl | 2.5
18 | C[C@H](Oc1ccc(/C=C/C(=O)O)cc1)c1c(Cl)ccc(F)c1Cl | 2.8

Now from value to compound:

Row | logD | SMILES
19 | 3.7 | C[C@H](Oc1ccc(NC(=O)CC(N)=O)c(C2CC2)n1)c1c(Cl)ccc(F)c1Cl
20 | 3.9 | C[C@H](Oc1ccc(/C=C/C(=O)O)c(CC2CC2)c1)c1c(Cl)ccc(F)c1Cl
21 | 2.5 | C[C@H](Oc1ccc2ncc(/C=C/C(=O)O)cc2c1)c1c(Cl)ccc(F)c1Cl
22 | 1.4 | C[C@H](Oc1ccc(NC(=O)CC(=O)O)c(C2CC2)n1)c1c(Cl)ccc(F)c1Cl
23 | 3.2 | Cc1cc(O[C@@H](C)c2c(Cl)ccc(F)c2Cl)ccc1/C=C/C(=O)O
24 | 2 | C[C@H](Oc1ccc2ncc(/C=C/C(=O)O)c(-n3ccnc3)c2c1)c1c(Cl)ccc(F)c1Cl
25 | 2.7 | C[C@H](Oc1ccc2ncc(-c3ccn(CCC(=O)O)n3)c(C3CC3)c2c1)c1c(Cl)cccc1Cl
26 | 4.5 | Cc1c(/C=C/C(=O)O)ccc2ccc(O[C@@H](C)c3c(Cl)ccc(F)c3Cl)cc12
27 | 2.2 | CC(Oc1ccc2ncc(/C=C/C(=O)O)c(C3CC3)c2c1)c1c(Cl)cccc1C#N (centres undefined)
28 | 1.9 | C[C@H](Oc1ccc(NC(=O)CC(=O)O)c(C2CC2)c1)c1c(Cl)ccc(F)c1Cl
29 | 2 | O=C(O)/C=C/c1cnc2ccc(O[C@@H](CO)c3c(Cl)cccc3Cl)cc2c1C1CC1

System: not listed separately
Assay: Inhibition of Escherichia coli MsbA preincubated for 10 mins followed by ATP addition and incubated for 1 hr by fluorescence polarization assay
Details: not given

Row | SMILES | IC50 [nM]
30 | C[C@H](Oc1ccnc(C2CC2)c1)c1c(Cl)ccc(F)c1Cl | 3400
31 | C[C@H](Oc1cccc(C2CC2)c1)c1c(Cl)ccc(F)c1Cl | > 10000
32 | C[C@H](Oc1ccc(/C=C/C(=O)O)c(C2CC2)c1)c1c(Cl)ccc(F)c1Cl | 100
33 | C[C@H](Oc1ccnc(C2CC2)n1)c1c(Cl)ccc(F)c1Cl | 450
34 | C[C@H](Oc1cccc(C2CC2)n1)c1c(Cl)ccc(F)c1Cl | > 10000
35 | C[C@H](Oc1ccc2ncc(/C=C/C(=O)O)c(C3CC3)c2c1)c1c(Cl)cccc1Cl | 2
36 | C[C@H](Oc1ccc2ncc(/C=C/c3nn[nH]n3)c(C3CC3)c2c1)c1c(Cl)ccc(F)c1Cl | 3
37 | C[C@H](Oc1ccc2ncc(/C=C/C(=O)O)c(C#N)c2c1)c1c(Cl)ccc(F)c1Cl | 110
38 | C[C@H](Oc1nccc(N(c2nc(C(=O)O)cs2)C2CC2)n1)c1c(Cl)ccc(F)c1Cl | 46
39 | C[C@H](Oc1ccc2ncc(/C=C/C(=O)O)c(C3CC3)c2c1)c1c(Cl)ccnc1Cl | 18
40 | Cc1c(/C=C/C(=O)O)cnc2ccc(O[C@@H](C)c3c(Cl)ccc(F)c3Cl)cc12 | 20
41 | C[C@H](Oc1ccc(NC(=O)CC(N)=O)c(C2CC2)c1)c1c(Cl)ccc(F)c1Cl | 40
42 | C[C@H](Oc1ccc2ncc(/C=C/C(=O)N3CC[C@@H](N)[C@H](C(=O)O)C3)c(C3CC3)c2c1)c1c(Cl)ccc(F)c1Cl (mixture of isomers) | 5
43 | C[C@H](Oc1ccc2ncc(/C=C/C(=O)NC(CC(=O)O)CC(=O)O)c(C3CC3)c2c1)c1c(Cl)ccc(F)c1Cl | 9
44 | C[C@H](Oc1ccc2ncc(/C=C/C(=O)NS(C)(=O)=O)c(C3CC3)c2c1)c1c(Cl)cccc1Cl | 2
45 | C[C@H](Oc1ccc2ncc(/C=C/S(=O)(=O)O)c(C3CC3)c2c1)c1c(Cl)ccc(F)c1Cl | 14
46 | C[C@H](Oc1ccc2ncc(S(=O)(=O)CC(=O)O)c(C3CC3)c2c1)c1c(Cl)ccc(F)c1Cl | 78
47 | C[C@H](Oc1ccc(/C=C/C(=O)O)cc1)c1c(Cl)ccc(F)c1Cl | 5800

Next, values leading:

Row | IC50 [nM] | SMILES
48 | 27 | C[C@H](Oc1ccc(NC(=O)CC(N)=O)c(C2CC2)n1)c1c(Cl)ccc(F)c1Cl
49 | 460 | C[C@H](Oc1ccc(/C=C/C(=O)O)c(CC2CC2)c1)c1c(Cl)ccc(F)c1Cl
50 | 140 | C[C@H](Oc1ccc2ncc(/C=C/C(=O)O)cc2c1)c1c(Cl)ccc(F)c1Cl
51 | 12 | C[C@H](Oc1ccc(NC(=O)CC(=O)O)c(C2CC2)n1)c1c(Cl)ccc(F)c1Cl
52 | 2200 | Cc1cc(O[C@@H](C)c2c(Cl)ccc(F)c2Cl)ccc1/C=C/C(=O)O
53 | 2200 | C[C@H](Oc1ccc2ncc(/C=C/C(=O)O)c(-n3ccnc3)c2c1)c1c(Cl)ccc(F)c1Cl
54 | 6 | C[C@H](Oc1ccc2ncc(-c3ccn(CCC(=O)O)n3)c(C3CC3)c2c1)c1c(Cl)cccc1Cl
55 | 32 | Cc1c(/C=C/C(=O)O)ccc2ccc(O[C@@H](C)c3c(Cl)ccc(F)c3Cl)cc12
56 | 24 | CC(Oc1ccc2ncc(/C=C/C(=O)O)c(C3CC3)c2c1)c1c(Cl)cccc1C#N (centres undefined)
57 | 60 | C[C@H](Oc1ccc(NC(=O)CC(=O)O)c(C2CC2)c1)c1c(Cl)ccc(F)c1Cl
58 | 550 | O=C(O)/C=C/c1cnc2ccc(O[C@@H](CO)c3c(Cl)cccc3Cl)cc2c1C1CC1

System: Escherichia coli
Assay: Antibacterial activity against wild type Escherichia coli CFT073 (ATCC 700928) assessed as bacterial growth by broth microdilution assay
Assay type: functional
Details: not given

Row | SMILES | MIC [µM]
59 | C[C@H](Oc1ccnc(C2CC2)c1)c1c(Cl)ccc(F)c1Cl | > 100
60 | C[C@H](Oc1cccc(C2CC2)c1)c1c(Cl)ccc(F)c1Cl | > 100
61 | C[C@H](Oc1ccc(/C=C/C(=O)O)c(C2CC2)c1)c1c(Cl)ccc(F)c1Cl | > 100
62 | C[C@H](Oc1ccnc(C2CC2)n1)c1c(Cl)ccc(F)c1Cl | > 100
63 | C[C@H](Oc1cccc(C2CC2)n1)c1c(Cl)ccc(F)c1Cl | > 100
64 | C[C@H](Oc1ccc2ncc(/C=C/C(=O)O)c(C3CC3)c2c1)c1c(Cl)cccc1Cl | 30
65 | C[C@H](Oc1ccc2ncc(/C=C/c3nn[nH]n3)c(C3CC3)c2c1)c1c(Cl)ccc(F)c1Cl | 12
66 | C[C@H](Oc1ccc2ncc(/C=C/C(=O)O)c(C#N)c2c1)c1c(Cl)ccc(F)c1Cl | > 100
67 | C[C@H](Oc1nccc(N(c2nc(C(=O)O)cs2)C2CC2)n1)c1c(Cl)ccc(F)c1Cl | > 100
68 | C[C@H](Oc1ccc2ncc(/C=C/C(=O)O)c(C3CC3)c2c1)c1c(Cl)ccnc1Cl | > 100
69 | Cc1c(/C=C/C(=O)O)cnc2ccc(O[C@@H](C)c3c(Cl)ccc(F)c3Cl)cc12 | > 100
70 | C[C@H](Oc1ccc(NC(=O)CC(N)=O)c(C2CC2)c1)c1c(Cl)ccc(F)c1Cl | > 100
71 | C[C@H](Oc1ccc2ncc(/C=C/C(=O)N3CC[C@@H](N)[C@H](C(=O)O)C3)c(C3CC3)c2c1)c1c(Cl)ccc(F)c1Cl (mixture of isomers) | > 100
72 | C[C@H](Oc1ccc2ncc(/C=C/C(=O)NC(CC(=O)O)CC(=O)O)c(C3CC3)c2c1)c1c(Cl)ccc(F)c1Cl | > 100
73 | C[C@H](Oc1ccc2ncc(/C=C/C(=O)NS(C)(=O)=O)c(C3CC3)c2c1)c1c(Cl)cccc1Cl | 35
74 | C[C@H](Oc1ccc2ncc(/C=C/S(=O)(=O)O)c(C3CC3)c2c1)c1c(Cl)ccc(F)c1Cl | > 100
75 | C[C@H](Oc1ccc2ncc(S(=O)(=O)CC(=O)O)c(C3CC3)c2c1)c1c(Cl)ccc(F)c1Cl | > 100
76 | C[C@H](Oc1ccc(/C=C/C(=O)O)cc1)c1c(Cl)ccc(F)c1Cl | > 100

Continued, values first:

Row | MIC [µM] | SMILES
77 | > 100 | C[C@H](Oc1ccc(NC(=O)CC(N)=O)c(C2CC2)n1)c1c(Cl)ccc(F)c1Cl
78 | > 100 | C[C@H](Oc1ccc(/C=C/C(=O)O)c(CC2CC2)c1)c1c(Cl)ccc(F)c1Cl
79 | > 100 | C[C@H](Oc1ccc2ncc(/C=C/C(=O)O)cc2c1)c1c(Cl)ccc(F)c1Cl
80 | > 100 | C[C@H](Oc1ccc(NC(=O)CC(=O)O)c(C2CC2)n1)c1c(Cl)ccc(F)c1Cl
81 | > 100 | Cc1cc(O[C@@H](C)c2c(Cl)ccc(F)c2Cl)ccc1/C=C/C(=O)O
82 | > 100 | C[C@H](Oc1ccc2ncc(/C=C/C(=O)O)c(-n3ccnc3)c2c1)c1c(Cl)ccc(F)c1Cl
83 | > 100 | C[C@H](Oc1ccc2ncc(-c3ccn(CCC(=O)O)n3)c(C3CC3)c2c1)c1c(Cl)cccc1Cl
84 | > 100 | Cc1c(/C=C/C(=O)O)ccc2ccc(O[C@@H](C)c3c(Cl)ccc(F)c3Cl)cc12
85 | > 100 | CC(Oc1ccc2ncc(/C=C/C(=O)O)c(C3CC3)c2c1)c1c(Cl)cccc1C#N (centres undefined)
86 | > 100 | C[C@H](Oc1ccc(NC(=O)CC(=O)O)c(C2CC2)c1)c1c(Cl)ccc(F)c1Cl
87 | > 100 | O=C(O)/C=C/c1cnc2ccc(O[C@@H](CO)c3c(Cl)cccc3Cl)cc2c1C1CC1

System: Escherichia coli
Assay: Antibacterial activity against wild type Escherichia coli MG1655 carrying lptD (imp4213) assessed as bacterial growth inhibition by broth microdilution assay
Assay type: functional
Details: not given

Row | SMILES | MIC [µM]
88 | C[C@H](Oc1ccnc(C2CC2)c1)c1c(Cl)ccc(F)c1Cl | > 100
89 | C[C@H](Oc1cccc(C2CC2)c1)c1c(Cl)ccc(F)c1Cl | > 100
90 | C[C@H](Oc1ccc(/C=C/C(=O)O)c(C2CC2)c1)c1c(Cl)ccc(F)c1Cl | 100 (≈ 39.5 µg/mL)
91 | C[C@H](Oc1ccnc(C2CC2)n1)c1c(Cl)ccc(F)c1Cl | > 100
92 | C[C@H](Oc1cccc(C2CC2)n1)c1c(Cl)ccc(F)c1Cl | > 100
93 | C[C@H](Oc1ccc(NC(=O)CC(N)=O)c(C2CC2)c1)c1c(Cl)ccc(F)c1Cl | 25 (≈ 10.6 µg/mL)
94 | C[C@H](Oc1ccc(/C=C/C(=O)O)cc1)c1c(Cl)ccc(F)c1Cl | > 100

Second part, the compound after the results:

Row | MIC [µM] | SMILES
95 | 12 (≈ 5.12 µg/mL) | C[C@H](Oc1ccc(NC(=O)CC(N)=O)c(C2CC2)n1)c1c(Cl)ccc(F)c1Cl
96 | 50 (≈ 20.5 µg/mL) | C[C@H](Oc1ccc(/C=C/C(=O)O)c(CC2CC2)c1)c1c(Cl)ccc(F)c1Cl
97 | 31 (≈ 13.2 µg/mL) | C[C@H](Oc1ccc(NC(=O)CC(=O)O)c(C2CC2)n1)c1c(Cl)ccc(F)c1Cl
98 | > 100 | Cc1cc(O[C@@H](C)c2c(Cl)ccc(F)c2Cl)ccc1/C=C/C(=O)O
99 | 71 (≈ 30.3 µg/mL) | C[C@H](Oc1ccc(NC(=O)CC(=O)O)c(C2CC2)c1)c1c(Cl)ccc(F)c1Cl
